Measurements: patent US20070128217A1 (priority 2003, published 2007)

Tests used:
[1] = test system: antibodies in sera from SARS patients (sera 1a, 1b, 2, 6, 37, 62, London, SARS-yellow, SARS-green); format: binding, human; parameters: Binding of serum 6 to linear peptides of protein X1 of SARS-CoV Urbani / Binding of serum 37 to linear peptides of protein X1 of SARS-CoV Urbani / Binding of serum 6 to looped/cyclic peptide (PEPSCAN-ELISA) / Binding of serum 37 to looped/cyclic peptide (PEPSCAN-ELISA) / Binding of serum 37 to looped/cyclic peptides of protein X1 of SARS-CoV Urbani / Binding of serum 6 to linear peptides of protein X2 / Binding of serum 37 to linear peptides of protein X2 / Binding of serum 37 to looped/cyclic peptides of protein X2 of SARS-CoV Urbani / Binding of serum 6 to linear peptides of protein M of SARS-CoV Urbani / Binding of serum 37 to linear peptides of protein M of SARS-CoV Urbani / Binding of serum 6 to looped/cyclic peptides of protein M of SARS-CoV Urbani / Binding of serum 37 to looped/cyclic peptides of protein M of SARS-CoV Urbani / Binding of serum 6 to linear peptides of protein X3 of SARS-CoV Urbani / Binding of serum 37 to linear peptides of protein X3 of SARS-CoV Urbani / Binding of serum 37 to looped/cyclic peptides of protein X3 of SARS-CoV Urbani / Binding of serum 6 to linear peptides of protein X4 of SARS-CoV Urbani / Binding of serum 37 to linear peptides of protein X4 of SARS-CoV Urbani / Binding of serum 37 to looped/cyclic peptides of protein X4 of SARS-CoV Urbani / Binding of serum 6 to linear peptides of protein X5 of SARS-CoV Urbani / Binding of serum 37 to linear peptides of protein X5 of SARS-CoV Urbani / Binding of serum 37 to looped/cyclic peptides of protein X5 of SARS-CoV Urbani / Binding of serum 6 to linear peptides of protein N of SARS-CoV Urbani / Binding of serum 37 to linear peptides of protein N of SARS-CoV Urbani / Binding of serum 6 to linear peptide (PEPSCAN-ELISA) / Binding of serum 1a to looped/cyclic peptides of protein N of SARS-CoV Urbani / Binding of serum 1b to looped/cyclic peptides of protein N of SARS-CoV Urbani / Binding of serum 2 to looped/cyclic peptides of protein N of SARS-CoV Urbani / Binding of serum 6 to looped/cyclic peptides of protein N of SARS-CoV Urbani / Binding of serum 37 to looped/cyclic peptides of protein N of SARS-CoV Urbani / Binding of serum 62 to looped/cyclic peptides of protein N of SARS-CoV Urbani / Binding of serum London to looped/cyclic peptides of protein N of SARS-CoV Urbani / Binding of serum SARS-green to looped/cyclic peptides of protein N of SARS-CoV Urbani: unit not given here
[2] = test system: control sera (pooled serum of ten healthy LUMC hospital workers; commercial negative donor pooled serum from the Dutch bloodbank); format: binding, human; parameters: Binding of Control serum LUMC to linear peptides / Binding of Control serum Blood-bank to linear peptides / Binding of Control serum LUMC to looped peptides / Binding of Control Serum Blood-Bank to Looped peptides / Binding of Control serum LUMC to linear peptides of the protein M of SARS-CoV Urbani / Binding of Control serum Blood-bank to linear peptides of the protein M of SARS-CoV Urbani / Binding of Control serum LUMC to looped peptides of the protein M of SARS-CoV Urbani / Binding of Control Serum Blood-Bank to Looped peptides of the protein M of SARS-CoV Urbani: unit not given here
[3] = test system: rabbit serum obtained by immunizing a rabbit with the SARS-CoV strain Frankfurt 1; format: binding; parameters: Binding of a rabbit serum to linear peptides / Binding of a rabbit serum to looped peptides / Rabbit serum linear peptides / Rabbit serum looped peptides / Binding of a rabbit serum to linear peptides of protein N of SARS-CoV Urbani (Rabbit serum linear peptides) / Binding of a rabbit serum to looped/cyclic peptides of protein N of SARS-CoV Urbani (Rabbit serum looped peptides): unit not given here

Question: With ALTCTSTHFAFACAD as the sequence, how does the “Binding of serum 1a to linear peptides of protein X4 of SARS-CoV Urbani” value [1] read?
Answer: 0.8

Question: What about the “Binding of serum 1a to looped/cyclic peptides of protein X4 of SARS-CoV Urbani” value [1] of the same sequence?
Answer: 0.8

Question: What about the “Binding of serum 1b to linear peptides of protein X4 of SARS-CoV Urbani” value [1] of the same sequence?
Answer: 0.8

Question: And the “Binding of serum 1b to looped/cyclic peptides of protein X4 of SARS-CoV Urbani” value [1]?
Answer: 0.7

Question: And the “Binding of serum 2 to linear peptides of protein X4 of SARS-CoV Urbani” value [1]?
Answer: 0.5

Question: And the “Binding of serum 2 to looped/cyclic peptides of protein X4 of SARS-CoV Urbani” value [1]?
Answer: 0.7

Question: And the “Binding of serum 6 to linear peptides of protein X4 of SARS-CoV Urbani” value [1]?
Answer: 0.6

Question: And the “Binding of serum 6 to looped/cyclic peptides of protein X4 of SARS-CoV Urbani” value [1]?
Answer: 0.7

Question: And the “Binding of serum 37 to linear peptides of protein X4 of SARS-CoV Urbani” value [1]?
Answer: 0.9

Question: What about the “Binding of serum 37 to looped/cyclic peptides of protein X4 of SARS-CoV Urbani” value [1] of the same sequence?
Answer: 0.9

Question: What about the “Binding of serum 62 to linear peptides of protein X4 of SARS-CoV Urbani” value [1] of the same sequence?
Answer: 0.9

Question: And the “Binding of serum 62 to looped/cyclic peptides of protein X4 of SARS-CoV Urbani” value [1]?
Answer: 0.9

Question: What about the “Binding of serum London to linear peptides of protein X4 of SARS-CoV Urbani” value [1] of the same sequence?
Answer: 0.8

Question: What about the “Binding of serum London to looped/cyclic peptides of protein X4 of SARS-CoV Urbani” value [1] of the same sequence?
Answer: 0.3

Question: And the “Binding of serum SARS-green to linear peptides of protein X4 of SARS-CoV Urbani” value [1]?
Answer: 0.8

Question: What about the “Binding of serum SARS-green to looped/cyclic peptides of protein X4 of SARS-CoV Urbani” value [1] of the same sequence?
Answer: 0.8

Question: What about the “Binding of serum SARS-yellow to linear peptides of protein X4 of SARS-CoV Urbani” value [1] of the same sequence?
Answer: 0.7

Question: What about the “Binding of serum SARS-yellow to looped/cyclic peptides of protein X4 of SARS-CoV Urbani” value [1] of the same sequence?
Answer: 0.8

Question: What about the “Binding of Control Serum Blood-Bank to Looped peptides” value [2] of the same sequence?
Answer: 0.9

Question: And the “Binding of Control serum Blood-bank to linear peptides” value [2]?
Answer: 0.7

Question: And the “Binding of Control serum LUMC to linear peptides” value [2]?
Answer: 0.8

Question: And the “Binding of Control serum LUMC to looped peptides” value [2]?
Answer: 0.8

Question: And the “Rabbit serum linear peptides” value [3]?
Answer: 0.6

Question: And the “Rabbit serum looped peptides” value [3]?
Answer: 0.6

Question: Which results are given for IIMRCWLCWKCKSKN?
Answer: Binding of serum 1a to looped/cyclic peptide (PEPSCAN-ELISA) [1]: 0.5; Binding of serum 1b to looped/cyclic peptide (PEPSCAN-ELISA) [1]: 0.3; Binding of serum 2 to looped/cyclic peptide (PEPSCAN-ELISA) [1]: 0.3; Binding of serum 6 to looped/cyclic peptide (PEPSCAN-ELISA) [1]: 0.5; Binding of serum 37 to looped/cyclic peptide (PEPSCAN-ELISA) [1]: 0.4; Binding of serum 62 to looped/cyclic peptide (PEPSCAN-ELISA) [1]: 0.5; Binding of serum London to looped/cyclic peptide (PEPSCAN-ELISA) [1]: 0.2; Binding of serum SARS-green to looped/cyclic peptide (PEPSCAN-ELISA) [1]: 0.2; Binding of serum SARS-yellow to looped/cyclic peptide (PEPSCAN-ELISA) [1]: 0.3; Recognition of the peptide by sera of SARS-CoV infected individuals, and form (linear, looped/cyclic) in which it is recognized [1]: recognized in linear form; Binding of Control Serum Blood-Bank to Looped peptides [2]: 0.6; Binding of Control serum Blood-bank to linear peptides [2]: 0.5; Binding of Control serum LUMC to linear peptides [2]: 0.4; Binding of Control serum LUMC to looped peptides [2]: 0.6; Binding of a rabbit serum to linear peptides [3]: 0.2; Binding of a rabbit serum to looped peptides [3]: 0.7

Question: Which results are given for PKFTTSLSLHKLLQT?
Answer: Binding of serum 1a to linear peptides of protein X2 [1]: 0.6; Binding of serum 1a to looped/cyclic peptides of protein X2 of SARS-CoV Urbani [1]: 0.5; Binding of serum 1b to linear peptides of protein X2 [1]: 0.4; Binding of serum 1b to looped/cyclic peptides of protein X2 of SARS-CoV Urbani [1]: 0.4; Binding of serum 2 to linear peptides of protein X2 [1]: 0.5; Binding of serum 2 to looped/cyclic peptides of protein X2 of SARS-CoV Urbani [1]: 0.3; Binding of serum 6 to linear peptides of protein X2 [1]: 0.3; Binding of serum 6 to looped/cyclic peptides of protein X2 of SARS-CoV Urbani [1]: 0.3; Binding of serum 37 to linear peptides of protein X2 [1]: 0.5; Binding of serum 37 to looped/cyclic peptides of protein X2 of SARS-CoV Urbani [1]: 0.4; Binding of serum 62 to linear peptides of protein X2 [1]: 0.6; Binding of serum 62 to looped/cyclic peptides of protein X2 of SARS-CoV Urbani [1]: 0.6; Binding of serum London to linear peptides of protein X2 [1]: 0.4; Binding of serum London to looped/cyclic peptides of protein X2 of SARS-CoV Urbani [1]: 0.3; Binding of serum SARS-green to linear peptides of protein X2 [1]: 0.5; Binding of serum SARS-green to looped/cyclic peptides of protein X2 of SARS-CoV Urbani [1]: 0.3; Binding of serum SARS-yellow to linear peptides of protein X2 [1]: 0.3; Binding of serum SARS-yellow to looped/cyclic peptides of protein X2 of SARS-CoV Urbani [1]: 0.3; Binding of Control Serum Blood-Bank to Looped peptides [2]: 0.7; Binding of Control serum Blood-bank to linear peptides [2]: 0.7; Binding of Control serum LUMC to linear peptides [2]: 0.4; Binding of Control serum LUMC to looped peptides [2]: 0.4; Binding of a rabbit serum to linear peptides [3]: 0.2; Binding of a rabbit serum to looped peptides [3]: 0.4
